Literature values as cited in patent US12133918B2, “Partially pre-gelatinized cassava starch as pharmaceutical excipient” (Griffin Gamma, LLC, priority 2021, dated 2024).

Settings: literature and experimental data

SMILES | BCS class | permeability (BCS) | solubility (BCS)
CC(=O)Oc1ccccc1C(=O)O [Acetylsalicylic acid, acetylsalicylic acid] | Class I | highly permeable | highly soluble
COc1ccccc1OCC(O)CO (centres unmarked) [Guaifenesin, 3-(2-methoxyphenoxy)-1,2-propanediol] |  | highly permeable | highly soluble
